Experimental data taken from publication PMC9007951, “Systematically evaluating DOTATATE and FDG as PET immuno-imaging tracers of cardiovascular inflammation” (Scientific Reports, 2022).
Where two headings read alike, the source gives them in different places.

Experiment: Timed organ biodistribution of [^64Cu]Cu-DOTATATE by ex vivo gamma counting
Type: in vivo, mice
Conditions: mouse, intravenous, 1.85 MBq, total radioactivity, median (IQR); for tissue uptake at 2 h: 120 min after injection; for tissue uptake at 1 min: 1 min after injection; for tissue uptake at 0.5 h: 30 min after injection; for tissue uptake at 5 min: 5 min after injection; for tissue uptake at 1 h: 60 min after injection; for tissue uptake at 0.25 h: 15 min after injection
Experimental: Wild-type and atherosclerotic animals were injected with approximately 1.85 MBq of [^64Cu]Cu-DOTATATE and euthanized at either 1, 5, 15, 30, 60 or 120 min after injection (Supplementary Fig. S1A) to evaluate the tracer’s biodistribution. After euthanasia, an insulin syringe was used to collect blood samples from the right ventricle. Blood samples were used for the establishment of pharmacokinetics profile. Mice were then perfused with 20 mL of phosphate-buffered saline (PBS) and tissues of interest (heart, aorta, bone marrow, spleen, liver, stomach, bladder, kidneys, intestines, lungs, adrenal gland, muscles and pancreas) were harvested. Tissues were blotted for gamma counting on a Wizard2 2480 automatic gamma counter (Perkin Elmer, Waltham, MA). Values were corrected for decay and normalized to tissue weight to express radioactivity concentration as percentage injected dose per gram (%ID/g). […] To investigate the tracer’s distribution within different blood compartments, after gamma counting, 100 μL of blood were spun down at 2000 g for 15 min at 4 °C. Plasma (supernatant) and cells (pellet) were gamma counted and expressed as percentage of total activity. The remainder of the blood was separated using Lymphoprep density gradient medium (Nycomed Pharma, Zurich, Switzerland) following manufacturer’s instructions. Percentage of activity in mononuclear and polynuclear cells was calculated.

[1] = liver, female C57BL/6 mice, N=3-7, read-out: Tissue radioactivity, liver
[2] = lungs, female Apoe^-/- mice 12 weeks on Western Diet, N=3-8, read-out: Tissue radioactivity, lungs
[3] = lungs, female C57BL/6 mice, N=3-7, read-out: Tissue radioactivity, lungs
[4] = lymph node, female Apoe^-/- mice 12 weeks on Western Diet, N=3-8, read-out: Tissue radioactivity, lymph node
[5] = lymph node, female C57BL/6 mice, N=3-7, read-out: Tissue radioactivity, lymph node
[6] = muscle, female Apoe^-/- mice 12 weeks on Western Diet, N=3-8, read-out: Tissue radioactivity, muscle
[7] = muscle, female C57BL/6 mice, N=3-7, read-out: Tissue radioactivity, muscle
[8] = pancreas, female Apoe^-/- mice 12 weeks on Western Diet, N=3-8, read-out: Tissue radioactivity, pancreas
[9] = pancreas, female C57BL/6 mice, N=3-7, read-out: Tissue radioactivity, pancreas
[10] = small intestine, female Apoe^-/- mice 12 weeks on Western Diet, N=3-8, read-out: Tissue radioactivity, small intestine
[11] = small intestine, female C57BL/6 mice, N=3-7, read-out: Tissue radioactivity, small intestine
[12] = spleen, female Apoe^-/- mice 12 weeks on Western Diet, N=3-8, read-out: Tissue radioactivity, spleen
[13] = spleen, female C57BL/6 mice, N=3-7, read-out: Tissue radioactivity, spleen
[14] = stomach, female Apoe^-/- mice 12 weeks on Western Diet, N=3-8, read-out: Tissue radioactivity, stomach
[15] = stomach, female C57BL/6 mice, N=3-7, read-out: Tissue radioactivity, stomach
[16] = tail, female Apoe^-/- mice 12 weeks on Western Diet, N=3-8, read-out: Tissue radioactivity, tail
[17] = tail, female C57BL/6 mice, N=3-7, read-out: Tissue radioactivity, tail
[18] = thoracic aorta, female Apoe^-/- mice 12 weeks on Western Diet, N=3-8, read-out: Tissue radioactivity, thoracic aorta
[19] = thoracic aorta, female C57BL/6 mice, N=3-7, read-out: Tissue radioactivity, thoracic aorta

- tissue uptake at 2 h (liver, female Apoe^-/- mice 12 weeks on Western Diet, N=3-8, read-out: Tissue radioactivity, liver): 6.3 %ID/g
- tissue uptake at 1 min [1]: 10 %ID/g
- tissue uptake at 0.5 h [1]: 6.4 %ID/g
- tissue uptake at 1 min [2]: 2.1 %ID/g
- tissue uptake at 5 min [2]: 2.6 %ID/g
- tissue uptake at 0.5 h [2]: 1.6 %ID/g
- tissue uptake at 1 h [2]: 2.5 %ID/g
- tissue uptake at 2 h [2]: 2.8 %ID/g
- tissue uptake at 5 min [3]: 3.2 %ID/g
- tissue uptake at 0.5 h [3]: 1.3 %ID/g
- tissue uptake at 1 h [3]: 1.1 %ID/g
- tissue uptake at 1 min [4]: 2.6 %ID/g
- tissue uptake at 5 min [4]: 3.2 %ID/g
- tissue uptake at 0.25 h [4]: 3 %ID/g
- tissue uptake at 0.5 h [4]: 2.4 %ID/g
- tissue uptake at 1 h [4]: 2.1 %ID/g
- tissue uptake at 1 min [5]: 3 %ID/g
- tissue uptake at 5 min [5]: 4.7 %ID/g
- tissue uptake at 0.25 h [5]: 3.2 %ID/g
- tissue uptake at 1 h [5]: 1.3 %ID/g
- tissue uptake at 2 h [5]: 0.6 %ID/g
- tissue uptake at 1 min [6]: 1.2 %ID/g
- tissue uptake at 5 min [6]: 1.4 %ID/g
- tissue uptake at 0.25 h [6]: 0.6 %ID/g
- tissue uptake at 0.5 h [6]: 0.7 %ID/g
- tissue uptake at 1 h [6]: 0.4 %ID/g
- tissue uptake at 2 h [6]: 0.3 %ID/g
- tissue uptake at 1 min [7]: 2 %ID/g
- tissue uptake at 5 min [7]: 1.6 %ID/g
- tissue uptake at 0.5 h [7]: 0.5 %ID/g
- tissue uptake at 1 h [7]: 0.3 %ID/g
- tissue uptake at 2 h [7]: 0.3 %ID/g
- tissue uptake at 1 min [8]: 4.7 %ID/g
- tissue uptake at 5 min [8]: 4.1 %ID/g
- tissue uptake at 0.25 h [8]: 3.5 %ID/g
- tissue uptake at 0.5 h [8]: 3.4 %ID/g
- tissue uptake at 1 h [8]: 2.7 %ID/g
- tissue uptake at 2 h [8]: 2.6 %ID/g
- tissue uptake at 1 min [9]: 8.7 %ID/g
- tissue uptake at 5 min [9]: 5.3 %ID/g
- tissue uptake at 0.25 h [9]: 6.1 %ID/g
- tissue uptake at 0.5 h [9]: 5.8 %ID/g
- tissue uptake at 1 h [9]: 4.8 %ID/g
- tissue uptake at 2 h [9]: 2.6 %ID/g
- tissue uptake at 1 min [10]: 1.4 %ID/g
- tissue uptake at 5 min [10]: 1.2 %ID/g
- tissue uptake at 0.5 h [10]: 3.1 %ID/g
- tissue uptake at 2 h [10]: 7.2 %ID/g
- tissue uptake at 1 min [11]: 3 %ID/g
- tissue uptake at 5 min [11]: 2 %ID/g
- tissue uptake at 0.25 h [11]: 1.7 %ID/g
- tissue uptake at 0.5 h [11]: 2.6 %ID/g
- tissue uptake at 1 h [11]: 2.4 %ID/g
- tissue uptake at 1 min [12]: 2 %ID/g
- tissue uptake at 5 min [12]: 1.1 %ID/g
- tissue uptake at 0.25 h [12]: 1.2 %ID/g
- tissue uptake at 0.5 h [12]: 1.1 %ID/g
- tissue uptake at 1 h [12]: 0.8 %ID/g
- tissue uptake at 2 h [12]: 1.2 %ID/g
- tissue uptake at 5 min [13]: 1.5 %ID/g
- tissue uptake at 0.5 h [13]: 0.7 %ID/g
- tissue uptake at 1 h [13]: 0.6 %ID/g
- tissue uptake at 2 h [13]: 0.5 %ID/g
- tissue uptake at 1 min [14]: 2.1 %ID/g
- tissue uptake at 5 min [14]: 2.4 %ID/g
- tissue uptake at 2 h [14]: 5 %ID/g
- tissue uptake at 1 min [15]: 2.3 %ID/g
- tissue uptake at 5 min [15]: 2.4 %ID/g
- tissue uptake at 0.25 h [15]: 5 %ID/g
- tissue uptake at 0.5 h [15]: 7.8 %ID/g
- tissue uptake at 1 h [15]: 8 %ID/g
- tissue uptake at 2 h [15]: 3.2 %ID/g
- tissue uptake at 5 min [16]: 2.5 %ID/g
- tissue uptake at 0.25 h [16]: 2.5 %ID/g
- tissue uptake at 0.5 h [16]: 3.1 %ID/g
- tissue uptake at 1 h [16]: 2 %ID/g
- tissue uptake at 2 h [16]: 2.7 %ID/g
- tissue uptake at 1 min [17]: 3.5 %ID/g
- tissue uptake at 5 min [17]: 2.7 %ID/g
- tissue uptake at 1 h [17]: 1.6 %ID/g
- tissue uptake at 2 h [17]: 0.6 %ID/g
- tissue uptake at 1 min [18]: 2.9 %ID/g
- tissue uptake at 5 min [18]: 2.1 %ID/g
- tissue uptake at 0.25 h [18]: 2 %ID/g
- tissue uptake at 1 h [18]: 2.1 %ID/g
- tissue uptake at 2 h [18]: 2.1 %ID/g
- tissue uptake at 1 min [19]: 3.2 %ID/g
- tissue uptake at 5 min [19]: 3.1 %ID/g
- tissue uptake at 0.25 h [19]: 1.6 %ID/g
- tissue uptake at 0.5 h [19]: 1.3 %ID/g
- tissue uptake at 1 h [19]: 1.2 %ID/g
- tissue uptake at 2 h [19]: 1 %ID/g
Structure (SMILES): C[C@@H](O)[C@H](NC(=O)[C@@H]1CSSC[C@H](NC(=O)[C@@H](Cc2ccccc2)NC(=O)CN2CCN(CC(=O)O)CCN(CC(=O)O)CCN(CC(=O)O)CC2)C(=O)N[C@@H](Cc2ccc(O)cc2)C(=O)N[C@H](Cc2c[nH]c3ccccc23)C(=O)N[C@@H](CCCCN)C(=O)N[C@@H]([C@@H](C)O)C(=O)N1)C(=O)O [[^64Cu]Cu-DOTATATE, metal not drawn]
